Data taken from patent US9173898B2, “Methods of treating giardiasis” (THE UNITED STATES OF AMERICA, as represented by the …, priority 2010, dated 2015).
In brackets after ≈: the same amount, converted by molar mass. Where a name gives a salt, the structure may show the parent alone. Read-outs that look alike come from different tables or passages of the source.

Key:
CHO cells [1] = assay: CHO cell cytotoxicity assay in 1536-well format (ATP content counter-screen); format: cell-based, Chinese hamster; conditions: concentration at which 50% of DMSO control ATP levels are detected, 48 hours
Description: For the viability assay in 1536-well format, 2 μL media was dispensed per well into 1536-well white solid-bottom plates using Multidrop Combi dispenser. Subsequently, 23 nL/well compound solutions or DMSO controls were dispensed to the assay plates via a pintool workstation. The Chinese hamster ovary (CHO) cells were grown in T225 flasks to 70% confluence under a standard cell culture condition (ATCC), detached with 0.25% Trypsin/EDTA, and seeded at 250 cells/well in 4 μL media (Dulbecco's Modified Eagle Medium, 10% fetal bovine serum, 1× penicillin/streptomycin). The plates were incubated at 37° C. with 5% CO2 and 95% humidity for 48 hours. Subsequently, ATP content was measured following the addition of 4 μL/well of ATPLite reagent and a 20 min incubation on a ViewLux plate reader.
Data from the CHO cell counter-screen underwent the same initial analysis, with the exception that raw luminescence counts were normalized relative to DMSO only wells (0% activity) and 38.3 μM camptothecin treated wells (100% activity).
CHO cells, commonly used in high throughput compound screening, were selected to determine the cytotoxicity of the compounds towards a mammalian cell line.

CHO cells [2] = assay: as above; format: cell-based, Chinese hamster; conditions: for Emax: Cricetulus griseus, CHO, 48 h, percent reduction in ATP levels compared with 38.3 µM camptothecin at maximal compound concentration, read-out: CHO Efficacy; for CHO Efficacy: percent reduction in ATP levels compared with 38.3 mM camptothecin at maximal compound concentration
Giardia WB = assay: Giardia viability (ATP content) assay in 1536-well format; format: cell-based, Giardia lamblia; conditions: for Emax: 48 h, read-out: Giardia WB Efficacy; for Emax / Giardia WB Efficacy: percent reduction in ATP levels compared with 38.3 mM Mnz at maximal compound concentration; for IC50: concentration at which 50% of DMSO control ATP levels are detected, 48 hours, 1536-well
Description: (§1) For the viability assay in 1536-well format, 2 μL media was dispensed per well into 1536-well white solid-bottom plates using a Multidrop Combi dispenser (Thermo Scientific). Subsequently, 23 nL/well compound solutions or DMSO controls were dispensed to the assay plates containing media via a pintool workstation (Kalypsys, San Diego). Trophozoites were chilled on ice to detach from glass tubes, and unless otherwise noted, were diluted to 250,000 trophozoites/mL with ice cold media. The trophozoite suspension was kept on ice and dispensed as 4 μL/well with the Multidrop Combi dispenser. Attachment of trophozoites to dispensing apparatus was avoided with continuous dispensing and icing of the trophozoite suspension. The plates were covered with plastic low-evaporation lids, individually sealed in Type A Bio-Bags and incubated at 37° C. for 48 hours. Following incubation, 4 μL/well of ATPLite reagent was dispensed with the Multidrop Combi dispenser. The assay plates were briefly centrifuged at 1000 RPM and luminescence signal was detected on a ViewLux plate reader (PerkinElmer) after 20 min incubation at room temperature. Signal-to-basal (S/B) ratio, Z′ factor and coefficient of variation (CV) were calculated from 32 wells with 0.38% DMSO (total signal) and 32 well with 38.3 μM Mnz (basal signal).
Assay miniaturization in 1,536-well plate format was undertaken to increase throughput and facilitate screening of large compound libraries. The volume of trophozoites suspension was reduced to 6 μL/well and the ATP detection reagent was reduced to 4 μL/well in the 1536-well assay plates. […] The 100 trophozoites/well density was selected for further experiments to reduce the preparation work of Giardia cultures. Following these conditions, a DMSO test plate was used to assess the statistical parameters of the assay in the 1,536-well plate format.
Using the above established conditions in 1536-well format, each compound of the invention was tested at 5 concentration points, ranging from 61 nM-38.3 μM in a 1:5 dilution ratio (Inglese, J., D. S. Auld, A. Jadhav, R. L. Johnson, A. Simeonov, A. Yasgar, W. Zheng, and C. P. Austin. 2006. Quantitative high-throughput screening: a titration-based approach that efficiently identifies biological activities in large chemical libraries. Proc Natl Acad Sci USA 103:11473-8).

[3] = system: Giardia lamblia GS isolate; assay: Minimum Lethal Concentration (MLC) determination; format: cell-based; conditions: 3 days with compound, then 3 days regrowth without compound, tube without any live organisms
Description: Giardia lamblia GS isolate was used throughout the Minimal Lethal Concentration (MLC) experiments. Organisms were grown and maintained in TYI-S-33 medium supplemented with bile and antibiotics (Keister, 1983). Cidal activity was determined in 96-well culture plates (Corning Incorporated) followed by Giardia trophozoites regrowth in 8 ml tubes (Fisher Scientific). Dry compounds were dissolved in DMSO (Sigma) at stock concentration of 10 mM and then added to the growth media to ensure final DMSO concentration of no more than 0.5%. 100 μl of the compound solutions were placed in the wells by serial dilutions. 10 μl of Giardia trophozoites containing 10000 organisms were then added. Serial dilutions of metronidazole served as the positive control and the DMSO-containing medium served as the negative control. Plates were incubated under anaerobic conditions in sealed bags (Becton Dickinson and Company) at 37° C. for 3 days and surveyed visually under microscope to check survival, mobility and attachment of trophozoites. The plate was chilled on ice for 30 min and the entire contents of 4 wells in the growth/death transition were transferred into the 8 ml tubes containing growth media only (without the compound). After 3 days of incubation at 37° C., tubes were checked under microscope for any surviving trophozoites. MLC was attributed to the tube without any live organisms. See, e.g., Keister, D. B. 1983. Axenic culture of Giardia lamblia in TYI-S-33 medium supplemented with bile. Trans. Soc. Trop. Med. Hyg. 77:487-488.

G. lamblia GS isolate = assay: ATP content assay against G. lamblia GS isolate; format: cell-based, Giardia lamblia; conditions: Table 2, screen, read-out: Giardia GS IC50
Description: as §1
As a further confirmatory step, some compounds that were commercially available were purchased as powder samples and tested against the G. lamblia GS isolate using both the ATP content and enumeration assays (Table 3).

| Compound | IC50 (CHO cells [1]; Cricetulus griseus, CHO) [nM] | Emax (CHO cells [2]) [%] | Emax (Giardia WB; Giardia) [%] | IC50 (Giardia WB; Giardia) [nM] | MBC ([3]; Giardia duodenalis, 72 h) [µM] | IC50 (CHO cells [1]) [nM] | CHO Efficacy (CHO cells [2]) [%] | IC50 (Giardia WB) [nM] | Giardia WB Efficacy (Giardia WB) [%] | IC50 (G. lamblia GS isolate; Giardia duodenalis) [nM] | MBC [3] [µM] | IC50 (G. lamblia GS isolate) [nM] |
| --- | --- | --- | --- | --- | --- | --- | --- | --- | --- | --- | --- | --- |
| C=CCNC1=C2C[C@@H](C)C[C@H](OC)[C@H](O)[C@@H](C)/C=C(\C)[C@H](OC(N)=O)[C@@H](OC)/C=C\C=C(/C)C(=O)NC(=CC1=O)C2=O [17-Allylamino geldanamycin] | 520 | 86.9 | 95.6 | 81.9 | 13.9 (≈ 8.14 µg/mL) | – | – | – | – | – | – | – |
| N[C@H](C(=O)O)[C@@H]1CC(Cl)=NO1 [Acivicin] | 27400 | 52.5 | 85.9 | 170 | – | – | – | – | – | – | – | – |
| CC(C)C[C@H](NC(=O)[C@H](Cc1ccccc1)NC(=O)c1cnccn1)B(O)O [Bortezomib (S,S), Bortezomib] | 20 | 48.2 | 94.4 | 110 | – | – | – | – | – | – | – | – |
| NC(=O)c1cc(N2CC2)c([N+](=O)[O-])cc1[N+](=O)[O-] [CB 1954] | – | – | – | – | – | > 100000 | −16.9 | 120 | 96.4 | – | – | – |
| COC(COC(N)=O)C1=C(N2CC2)C(=O)C(C)=C(N2CC2)C1=O (stereo not drawn) [Carboquone] | 580 | 98.4 | 97.4 | 183 | 1.54 (≈ 0.495 µg/mL) | – | – | – | – | – | – | – |
| COC(=O)[C@H]1[C@H]2C[C@@H]3c4[nH]c5ccccc5c4CCN3C[C@H]2C[C@@H](OC(=O)c2cc(OC)c(OC)c(OC)c2)[C@@H]1OC [Deserpidine] | 280 | 13 | 94.5 | 1630 | 1.54 (≈ 0.891 µg/mL) | – | – | – | – | 283 | – | – |
| O=[N+]([O-])c1ccc(OC2OC(CO)C(O)C(O)C2F)c([N+](=O)[O-])c1 (stereo not drawn) [Dinitroph-dfgp] | > 100000 | -8 | 44.2 | 43400 | – | – | – | – | – | – | – | – |
| c1ccc2c(c1)[I+]c1ccccc1-2 [Diphenylene- iodonium chloride, diphenyleneiodonium chloride] | 2060 | 95.9 | 96 | 259 | – | – | – | – | – | – | – | – |
| CCN(CC)C(=S)SSC(=S)N(CC)CC [Disulfiram] | 200 | 53.6 | 95 | 6500 | – | – | – | – | – | – | – | – |
| COc1cc2c(cc1O)CCN[C@]21CS[C@H]2c3c(OC(C)=O)c(C)c4c(c3[C@H](COC1=O)N1C2[C@H]2c3c(cc(C)c(OC)c3O)C[C@@H]([C@@H]1O)N2C)OCO4 (stereo partly drawn) [Ecteinascidin 743] | 50 | 97.6 | 95.9 | 6.51 | – | – | – | – | – | – | – | – |
| CC(=O)[C@]1(O)Cc2c(O)c3c(c(O)c2[C@@H](O[C@H]2C[C@H](N)[C@H](O)[C@H](C)O2)C1)C(=O)c1ccccc1C3=O [Idarubicin HCl] | 200 | 88.7 | 94.1 | 3260 | > 41.7 | – | – | – | – | – | – | – |
| O=C1c2c(O)ccc(O)c2C(=O)c2c(NCCNCCO)ccc(NCCNCCO)c21 [Mitoxantrone] | 5800 | 95.8 | 87.5 | 8190 | > 41.7 | – | – | – | – | – | – | – |
| O=[N+]([O-])c1ccc(/C=N/O)o1 [Nifuroxime] | – | – | – | – | – | 41000 | −50.3 | 460 | 97.1 | – | 1.54 (≈ 0.24 µg/mL) | 1000 |
| COC(=O)Nc1nc2ccc(C(=O)c3cccs3)cc2[nH]1 [Nocodazole] | 370 | 54.4 | 86.7 | 183 | 0.15 (≈ 0.0452 µg/mL) | – | – | – | – | – | – | – |
| CCCCc1ccc2[nH]c(NC(=O)OC)nc2c1 [Parbendazole] | 440 | 60.3 | 90.2 | 312 | – | – | – | – | – | – | – | – |
| Oc1ccc(/C=C\c2cc(O)cc(O)c2)cc1 [Resveratrol] | 39200 | 22.2 | 80.7 | 4940 | > 208 | – | – | – | – | – | – | – |
| O=C(Nc1ncc([N+](=O)[O-])s1)c1cccs1 [Tenonitrozol] | > 100000 | 21.5 | 93.1 | 290 | 1.54 (≈ 0.393 µg/mL) | – | – | – | – | – | – | – |
| CN(C)C(=S)SSC(=S)N(C)C [Tetramethylthiur am disulfide, tetramethylthiuram disulfide] | 520 | 97.6 | 97.6 | 5160 | – | – | – | – | – | – | – | – |
| CC[C@]1(O)C[C@@H]2C[N@@](CCc3c([nH]c4ccccc34)[C@@](C(=O)OC)(c3cc4c(cc3OC)N(C)[C@H]3[C@@](O)(C(=O)OC)[C@H](OC(C)=O)[C@]5(CC)C=CCN6CC[C@]43[C@@H]65)C2)C1 [Vinblastine sulfate] | 100 | 64.1 | 90.1 | 1450 | – | – | – | – | – | – | – | – |
| Amlexanox | – | – | – | – | – | 3260 | 89.3 | 2590 | 92.4 | – | >41.7 | – |
| Bortezomib [Bortezomib (S,R)] | – | – | – | – | – | 10 | 36.2 | 70 | 92.8 | – | – | – |
